According to article PMC2396520, “Antibody Complementarity-Determining Regions (CDRs) Can Display Differential Antimicrobial, Antiviral and Antitumor Activities” (PLoS ONE, 2008):
Read-outs that look alike come from different tables or passages of the source. Where a SMILES comes first, the peptide text is derived from it.

Columns and labels:
[1] = system: R5 HIV-1; type: cell-based; conditions: for % inhibitory activity (10 µg/ml), endogenous HIV-1 replication: ex vivo, day 10 of culture, p24, mean of 3 determinations; for % inhibitory activity (10 µg/ml): R5, 2 h
Experimental: (§1) Briefly, for endogenous HIV-1 replication assays peripheral blood mononuclear cells (PBMCs) from R5 HIV-1-infected patients characterized by high viral RNA titers in plasma and cell-associated viremia were cultured in 96-well plates at 1×10^6 cells/mL in RPMI 1640 medium with 10% fetal calf serum (FCS) and 20 U/mL of rIL-2. Exogenous rIL-2 was added every 3–4 days. Cultures were treated with synthetic mAb CDRs and mAb C7/pc42 H1 asd at 10 µg/mL during the time of culture. Virus production on days 5 and 10 was assayed in the supernatants using ultrasensitive Alliance® HIV-1 p24 ELISA kit (Perkin Elmer); p24 Ag in the supernatants of untreated cultures corresponded to 100% of viral production. For exogenous infection assays, PHA-stimulated PBMCs obtained from healthy individuals were infected with BaL (R5) or IIIB (X4) HIV-1 strain at a median tissue culture infective dose (TCID50) of 500 TCID50/ml. After 2 h of adsorption, the cells were washed, suspended at 2×10^5 cells/ml in medium and cultured in 96-well cultures plates. At time zero of infection, synthetic peptides were added to the cultures at 10 µg/ml and were maintained throughout the experiment. All assays were performed in triplicate. Virus production was assayed 10 days after infection in the supernatants of HIV-1-infected PBMCs by p24 assay.

[2] = system: HIV-1 IIIB (X4); assay: In vitro exogenous HIV-1 infection of PHA-stimulated PBMCs, IIIB strain (p24 assay); type: cell-based; conditions: day 10, p24, mean of 3 determinations
Experimental: as §1

[3] = system: HIV-1 BaL (R5); assay: In vitro exogenous HIV-1 infection of PHA-stimulated PBMCs, BaL strain (p24 assay); type: cell-based; conditions: day 10, p24, mean of 3 determinations
Experimental: as §1

[4] = system: Candida albicans UP10; type: cell-based; conditions: for Anti-Candida activity (%) at 100 µg/mL: 37°C, 6 h, triplicate; for EC50: UP10, 6 h; for EC50asd/EC50H2: anti-Candida EC50 of the derivative relative to C7/pc42 H2
Experimental: The alanine substituted derivatives (asd), defined according to the position held by the alanine-substituted aminoacid, were tested in the same biological assays to critically establish the functional relevance of each residue [5]. In vitro microbicidal activity of CDR peptides and selected asd against C. albicans UP 10 (clinical isolate from the fungi collection of the University of Parma) and C. albicans NCPF 3153 (National Collection of Pathogenic Fungi, Bristol, UK) were used for the in vitro experiments.
The microbicidal activity of synthetic CDRs against C. albicans strains was preliminarily evaluated by testing 100 µg/mL of each synthetic peptide by colony forming unit (CFU) assays as previously described [5]. Briefly, 10 µL of a distilled water suspension containing ∼5×10^4/mL germinating yeast cells were added to 90 µL of distilled water containing the synthetic peptide to be tested. Yeast suspensions were incubated at 37°C for 6 h. After incubation, the cell suspensions were plated on Sabouraud dextrose agar, incubated at 30°C and observed for CFU determination after 48–72 hours. Each assay was carried out in triplicate. […] EC50 was calculated by nonlinear regression analysis using Graph Pad Prism 4.01 software, San Diego, CA, USA.

[5] = system: B16F10-Nex2 murine melanoma cells; type: cell-based; conditions: 12 h
Experimental: Each peptide was tested in triplicate. After 12 h, the cytotoxic activities of the peptides were determined by measuring cell viability by Trypan Blue exclusion.

[6] = system: C. albicans NCPF 3153; assay: Murine invasive candidiasis, i.p. peptide treatment; type: in vivo, BALB/c mice; conditions: day 5 post-infection; 200 µg peptide i.p. x3; saline 160.3±46.6
Experimental: Animal experiments were approved by the Institutional Review Board of the School of Medicine and Odontology at the University of the Basque Country, Spain. Female BALB/c mice, 8-weeks old (11–12 animals/group), were infected intravenously with 5×10^5 C. albicans NCPF 3153 yeast cells suspended in 0.1 mL saline. Mice were treated i.p. with 200 µg of mAb C7 L1 and mAb C7/pc42 H1 and H2 for 3 days starting on day 0, and 4 h after the fungal challenge, and at 24 and 48 h thereafter. Control mice were injected with saline (same treatment schedule as those treated with the CDRs). Protection was evaluated by monitoring animal survival for 20 days. The mean survival time and numbers of CFU of C. albicans in infected tissues were calculated as reported previously.
The Kaplan-Meier log rank test was applied to survival data. Data on CFU in infected tissues were analyzed by Student's t test. p values of 0.05 were considered significant.

[7] = CDR peptides, 100 µg/mL in distilled water, CFU after 48–72 h, C. albicans UP10
[8] = C7/pc42 H2 alanine-substituted derivatives, 100 µg/mL, CFU assay

Compound	% inhibitory activity (10 µg/ml), endogenous HIV-1 replication ([1]; 10 µg/ml) [%]	% inhibitory activity (10 µg/ml), exogenous HIV-1 replication, IIIB [2] [%]	% inhibitory activity (10 µg/ml), exogenous HIV-1 replication, BaL [3] [%]	Anti-Candida activity (%) at 100 µg/mL [4, 7] [%]	also measured
PNPLKAM [pc42 H3, synthetic peptide identical to heavy chain CDR H3 of mouse mAb pc42]	0	0	11	25.9	–
CSCC[C@H](NC(=O)[C@H](Cc1ccc(O)cc1)NC(=O)[C@H](Cc1ccc(O)cc1)NC(=O)CN)C(=O)N[C@@H](C)C(=O)O [H5A] (H-GYYMA-OH; N-terminus and C-terminus assumed)	–	–	–	–	% inhibitory activity (10 µg/ml) [1]: 0%
CSCC[C@H](NC(=O)[C@H](Cc1ccc(O)cc1)NC(=O)[C@H](Cc1ccc(O)cc1)NC(=O)[C@H](C)N)C(=O)N[C@@H](Cc1c[nH]cn1)C(=O)O [G1A] (H-AYYMH-OH; N-terminus and C-terminus assumed)	–	–	–	–	% inhibitory activity (10 µg/ml) [1]: 0%
QHIRELTRSE [pc42 L3, synthetic peptide identical to light chain CDR L3 of mouse mAb pc42]	0	0	0	83.9	–
C[C@H](NC(=O)[C@H](Cc1ccc(O)cc1)NC(=O)[C@H](Cc1ccc(O)cc1)NC(=O)CN)C(=O)N[C@@H](Cc1c[nH]cn1)C(=O)O [M4A] (H-GYYAH-OH; N-terminus and C-terminus assumed)	–	–	–	–	% inhibitory activity (10 µg/ml) [1]: 41%
VLAYDGSYQHYADSVKG [HuA H2, synthetic peptide identical to heavy chain CDR H2 of human IgM mAb HuA]	40	0	74	0	–
DASNRAT [HuA L2, synthetic peptide identical to light chain CDR L2 of human IgM mAb HuA]	32	0	0	0	–
CSCC[C@H](NC(=O)[C@H](Cc1ccc(O)cc1)NC(=O)[C@H](C)NC(=O)CN)C(=O)N[C@@H](Cc1c[nH]cn1)C(=O)O [Y2A] (H-GAYMH-OH; N-terminus and C-terminus assumed)	–	–	–	–	% inhibitory activity (10 µg/ml) [1]: 61%
CSCC[C@H](NC(=O)[C@H](C)NC(=O)[C@H](Cc1ccc(O)cc1)NC(=O)CN)C(=O)N[C@@H](Cc1c[nH]cn1)C(=O)O [Y3A] (H-GYAMH-OH; N-terminus and C-terminus assumed)	–	–	–	–	% inhibitory activity (10 µg/ml) [1]: 90%
GQTTVTKIDEDY [HuA H3, synthetic peptide identical to heavy chain CDR H3 of human IgM mAb HuA]	36	0	0	19.2	–
CC[C@H](C)[C@H](NC(=O)[C@@H](N)Cc1ccc(O)cc1)C(=O)N[C@@H](C)C(=O)N[C@@H](CS)C(=O)N[C@@H](Cc1ccc(O)cc1)C(=O)N[C@@H](CC(N)=O)C(=O)NCC(=O)N[C@@H](C)C(=O)N[C@H](C(=O)N[C@@H](CO)C(=O)N[C@@H](Cc1ccc(O)cc1)C(=O)N[C@@H](CC(N)=O)C(=O)N[C@@H](CCC(N)=O)C(=O)N[C@@H](CCCCN)C(=O)N[C@@H](Cc1ccccc1)C(=O)N[C@@H](CCCCN)C(=O)O)[C@@H](C)O [S3A] (H-YIACYNGATSYNQKFK-OH; N-terminus and C-terminus assumed)	–	–	–	–	Anti-Candida activity (%) at 100 µg/mL [4, 8]: 100.00%; EC50 [4]: 3.12 µM; EC50asd/EC50H2 [4]: 0.74; EC50 [5]: 64.9 µM
ARQGVRGGAMD [C7 H3, synthetic peptide identical to heavy chain CDR H3 of mouse mAb C7]	0	75	0	55.5	–
CC[C@H](C)[C@H](NC(=O)[C@@H](N)Cc1ccc(O)cc1)C(=O)N[C@@H](CO)C(=O)N[C@@H](CS)C(=O)N[C@@H](Cc1ccc(O)cc1)C(=O)N[C@@H](CC(N)=O)C(=O)NCC(=O)N[C@@H](C)C(=O)N[C@H](C(=O)N[C@@H](CO)C(=O)N[C@@H](Cc1ccc(O)cc1)C(=O)N[C@@H](CC(N)=O)C(=O)N[C@@H](CCC(N)=O)C(=O)N[C@@H](C)C(=O)N[C@@H](Cc1ccccc1)C(=O)N[C@@H](CCCCN)C(=O)O)[C@@H](C)O [K14A] (H-YISCYNGATSYNQAFK-OH; N-terminus and C-terminus assumed)	–	–	–	–	Anti-Candida activity (%) at 100 µg/mL [4, 8]: 91.72%; EC50 [4]: 18.5 µM; EC50asd/EC50H2 [4]: 4.41; EC50 [5]: 384 µM
CC[C@H](C)[C@H](NC(=O)[C@@H](N)Cc1ccc(O)cc1)C(=O)N[C@@H](CO)C(=O)N[C@@H](CS)C(=O)N[C@@H](Cc1ccc(O)cc1)C(=O)N[C@@H](CC(N)=O)C(=O)NCC(=O)N[C@@H](C)C(=O)N[C@H](C(=O)N[C@@H](CO)C(=O)N[C@@H](Cc1ccc(O)cc1)C(=O)N[C@@H](CC(N)=O)C(=O)N[C@@H](C)C(=O)N[C@@H](CCCCN)C(=O)N[C@@H](Cc1ccccc1)C(=O)N[C@@H](CCCCN)C(=O)O)[C@@H](C)O [Q13A] (H-YISCYNGATSYNAKFK-OH; N-terminus and C-terminus assumed)	–	–	–	–	Anti-Candida activity (%) at 100 µg/mL [4, 8]: 100.00%; EC50 [4]: 3.91 µM; EC50asd/EC50H2 [4]: 0.93; EC50 [5]: 128 µM
CC[C@H](C)[C@H](NC(=O)[C@@H](N)Cc1ccc(O)cc1)C(=O)N[C@@H](CO)C(=O)N[C@@H](CS)C(=O)N[C@@H](Cc1ccc(O)cc1)C(=O)N[C@@H](CC(N)=O)C(=O)NCC(=O)N[C@@H](C)C(=O)N[C@H](C(=O)N[C@@H](CO)C(=O)N[C@@H](Cc1ccc(O)cc1)C(=O)N[C@@H](CC(N)=O)C(=O)N[C@@H](CCC(N)=O)C(=O)N[C@@H](CCCCN)C(=O)N[C@@H](C)C(=O)N[C@@H](CCCCN)C(=O)O)[C@@H](C)O [F15A] (H-YISCYNGATSYNQKAK-OH; N-terminus and C-terminus assumed)	–	–	–	–	Anti-Candida activity (%) at 100 µg/mL [4, 8]: 100.00%; EC50 [4]: 0.904 µM; EC50asd/EC50H2 [4]: 0.22; EC50 [5]: 1000 µM
GYYMH [C7/pc42 H1, synthetic peptide identical to heavy chain CDR H1 shared by mAb C7 and mAb pc42]	58	0	24	69.2	CFU counts in kidney tissue [6]: 119.6±35.5; inhibition of R5 HIV-1 replication in treated cultures ([1]; ex vivo conditions, 10 µg/ml): > 50%
SYTFH [HuA H1, synthetic peptide identical to heavy chain CDR H1 of human IgM mAb HuA]	38	0	84	12.9	–
CC[C@H](C)[C@H](NC(=O)[C@@H](N)Cc1ccc(O)cc1)C(=O)N[C@@H](CO)C(=O)N[C@@H](CS)C(=O)N[C@@H](C)C(=O)N[C@@H](CC(N)=O)C(=O)NCC(=O)N[C@@H](C)C(=O)N[C@H](C(=O)N[C@@H](CO)C(=O)N[C@@H](Cc1ccc(O)cc1)C(=O)N[C@@H](CC(N)=O)C(=O)N[C@@H](CCC(N)=O)C(=O)N[C@@H](CCCCN)C(=O)N[C@@H](Cc1ccccc1)C(=O)N[C@@H](CCCCN)C(=O)O)[C@@H](C)O [Y5A] (H-YISCANGATSYNQKFK-OH; N-terminus and C-terminus assumed)	–	–	–	–	Anti-Candida activity (%) at 100 µg/mL [4, 8]: 98.10%; EC50 [4]: 28.5 µM; EC50asd/EC50H2 [4]: 6.81; EC50 [5]: 73.5 µM
